Columns and labels:
Assay in all cases: biochemical
MRCKβ = molecular target: T1, MRCKβ (Homo sapiens, UniProt Q9Y5S2)
T1 construct: gene CDC42BPB
Method: (§1) These assays rely on the phosphorylation of small synthetic peptides developed for each kinase, and detect activity by changes in electrophoretic mobility (MSA assay) or by binding of a fluorescently labelled peptide to a large micro-particle and concomitant polarization increases (IMAP assay). Reaction conditions for each kinase are described in Supplementary Table S5. All kinase assays were carried out at Carna Biosciences (Kobe, Japan). The inhibitory map was constructed using Kinome Render[41]. Inhibitor (4×), substrate/ATP-Metal (4×), and kinase (2×) solutions were prepared with assay buffer (20 mM HEPES, 0.01% Triton X-100, 2 mM DTT, pH 7.5) and mixed in 384-well plates at room temperature for 1 or 5 h depending on the kinase. Reactions were stopped by the addition of termination buffer (QuickScout Screening Assist MSA; Carna Biosciences). The entire reaction mixture was then applied to a LabChip system (Perkin-Elmer, Waltham, MA, USA) and the product and substrate peptide peaks were separated and quantified, and then heights of product (P) and substrate (S) peptide peaks were calculated. The level of kinase activity was evaluated with the following equation: activity = P/(P + S).

CaMK2δ = molecular target: T2, CaMK2δ (Homo sapiens, UniProt Q13557)
T2 construct: gene CAMK2D
T2 sequence (Q13557 whole entry): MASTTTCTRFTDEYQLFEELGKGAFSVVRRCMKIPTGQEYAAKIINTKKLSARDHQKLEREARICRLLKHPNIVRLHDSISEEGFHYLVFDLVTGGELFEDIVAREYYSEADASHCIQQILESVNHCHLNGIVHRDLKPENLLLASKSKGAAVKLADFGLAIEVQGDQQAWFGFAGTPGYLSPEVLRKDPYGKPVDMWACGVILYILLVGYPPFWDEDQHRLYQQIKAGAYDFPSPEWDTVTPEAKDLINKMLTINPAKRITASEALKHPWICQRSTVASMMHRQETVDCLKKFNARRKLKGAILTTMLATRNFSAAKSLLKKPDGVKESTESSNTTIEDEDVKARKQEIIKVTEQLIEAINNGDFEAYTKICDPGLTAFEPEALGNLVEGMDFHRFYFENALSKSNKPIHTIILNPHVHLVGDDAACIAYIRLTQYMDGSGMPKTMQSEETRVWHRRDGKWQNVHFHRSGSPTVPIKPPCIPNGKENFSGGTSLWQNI
Method: as §1

DYRK3 = DYRK3 (Homo sapiens, UniProt O43781)
Method: as §1

HGK = molecular target: T3, HGK (Homo sapiens, UniProt O95819)
T3 construct: gene MAP4K4
Method: as §1

NDR1 = molecular target: T4, NDR1 (Homo sapiens, UniProt Q15208)
T4 construct: gene STK38
T4 sequence (Q15208 whole entry): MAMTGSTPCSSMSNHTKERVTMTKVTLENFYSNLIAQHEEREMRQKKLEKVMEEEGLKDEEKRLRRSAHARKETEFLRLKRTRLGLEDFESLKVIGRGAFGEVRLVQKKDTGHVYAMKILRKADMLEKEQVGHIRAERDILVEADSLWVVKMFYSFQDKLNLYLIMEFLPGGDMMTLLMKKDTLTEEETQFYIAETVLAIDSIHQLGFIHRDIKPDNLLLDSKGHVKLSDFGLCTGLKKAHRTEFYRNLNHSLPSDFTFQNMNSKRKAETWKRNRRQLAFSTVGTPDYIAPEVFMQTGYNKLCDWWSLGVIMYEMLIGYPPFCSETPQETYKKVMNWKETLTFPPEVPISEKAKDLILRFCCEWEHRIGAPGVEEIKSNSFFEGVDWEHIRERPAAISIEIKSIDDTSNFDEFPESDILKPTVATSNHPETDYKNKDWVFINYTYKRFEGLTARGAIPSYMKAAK
Method: as §1

FLT1 = FLT1 (Homo sapiens, UniProt P17948)
Method: as §1

EGFR(T790M/L858R) = EGFR(T790M/L858R) (Homo sapiens, UniProt P00533, L858R/T790M)
Method: as §1

PDGFRα(D842V) = molecular target: T5, PDGFRα(D842V) (Homo sapiens, UniProt P16234, D842V)
T5 construct: gene PDGFRA
T5 sequence (P16234 whole entry D842V): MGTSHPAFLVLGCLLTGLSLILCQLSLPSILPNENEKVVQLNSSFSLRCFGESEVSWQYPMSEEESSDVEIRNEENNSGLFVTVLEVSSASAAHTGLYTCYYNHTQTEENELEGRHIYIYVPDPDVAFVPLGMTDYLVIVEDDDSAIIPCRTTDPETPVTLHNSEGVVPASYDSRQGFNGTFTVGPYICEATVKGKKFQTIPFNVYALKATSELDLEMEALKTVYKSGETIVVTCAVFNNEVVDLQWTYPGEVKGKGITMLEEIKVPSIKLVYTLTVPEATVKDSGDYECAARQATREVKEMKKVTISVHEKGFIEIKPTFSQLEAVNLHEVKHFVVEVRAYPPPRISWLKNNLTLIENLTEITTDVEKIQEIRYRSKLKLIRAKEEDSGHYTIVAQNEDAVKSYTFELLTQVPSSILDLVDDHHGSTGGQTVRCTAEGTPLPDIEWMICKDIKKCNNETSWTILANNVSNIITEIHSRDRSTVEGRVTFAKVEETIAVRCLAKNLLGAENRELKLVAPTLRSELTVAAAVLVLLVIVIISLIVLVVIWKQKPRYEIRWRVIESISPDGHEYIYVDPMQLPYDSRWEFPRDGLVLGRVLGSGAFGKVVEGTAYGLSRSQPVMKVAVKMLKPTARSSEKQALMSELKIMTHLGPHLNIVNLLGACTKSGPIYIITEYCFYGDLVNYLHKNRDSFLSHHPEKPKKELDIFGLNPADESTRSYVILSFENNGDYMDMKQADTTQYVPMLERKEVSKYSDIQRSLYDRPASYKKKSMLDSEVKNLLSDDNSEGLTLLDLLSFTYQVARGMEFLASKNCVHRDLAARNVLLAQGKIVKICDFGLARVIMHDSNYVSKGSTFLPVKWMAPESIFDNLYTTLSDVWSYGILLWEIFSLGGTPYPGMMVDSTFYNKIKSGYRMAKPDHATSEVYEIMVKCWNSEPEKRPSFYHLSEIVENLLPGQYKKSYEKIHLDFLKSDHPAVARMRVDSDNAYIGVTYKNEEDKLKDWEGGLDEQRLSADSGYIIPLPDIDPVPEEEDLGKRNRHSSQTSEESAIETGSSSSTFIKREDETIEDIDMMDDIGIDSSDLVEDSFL
Method: as §1

CK1γ3 = molecular target: T6, CK1γ3 (Homo sapiens, UniProt Q9Y6M4)
T6 construct: gene CSNK1G3
Method: as §1

MET = MET (Homo sapiens, UniProt P08581)
Method: as §1

PKCα = molecular target: T7, PKCα (Homo sapiens, UniProt P17252)
T7 construct: gene PRKCA
Method: as §1

RSK3 = molecular target: T8, RSK3 (Homo sapiens, UniProt Q15349)
T8 construct: gene RPS6KA2
Method: as §1

PIM1 = PIM1 (Homo sapiens, UniProt P11309)
Method: as §1

ALK(L1196M) = ALK(L1196M) (Homo sapiens, UniProt Q9UM73, L1196M)
ALK(L1196M), sequence (Q9UM73 whole entry L1196M): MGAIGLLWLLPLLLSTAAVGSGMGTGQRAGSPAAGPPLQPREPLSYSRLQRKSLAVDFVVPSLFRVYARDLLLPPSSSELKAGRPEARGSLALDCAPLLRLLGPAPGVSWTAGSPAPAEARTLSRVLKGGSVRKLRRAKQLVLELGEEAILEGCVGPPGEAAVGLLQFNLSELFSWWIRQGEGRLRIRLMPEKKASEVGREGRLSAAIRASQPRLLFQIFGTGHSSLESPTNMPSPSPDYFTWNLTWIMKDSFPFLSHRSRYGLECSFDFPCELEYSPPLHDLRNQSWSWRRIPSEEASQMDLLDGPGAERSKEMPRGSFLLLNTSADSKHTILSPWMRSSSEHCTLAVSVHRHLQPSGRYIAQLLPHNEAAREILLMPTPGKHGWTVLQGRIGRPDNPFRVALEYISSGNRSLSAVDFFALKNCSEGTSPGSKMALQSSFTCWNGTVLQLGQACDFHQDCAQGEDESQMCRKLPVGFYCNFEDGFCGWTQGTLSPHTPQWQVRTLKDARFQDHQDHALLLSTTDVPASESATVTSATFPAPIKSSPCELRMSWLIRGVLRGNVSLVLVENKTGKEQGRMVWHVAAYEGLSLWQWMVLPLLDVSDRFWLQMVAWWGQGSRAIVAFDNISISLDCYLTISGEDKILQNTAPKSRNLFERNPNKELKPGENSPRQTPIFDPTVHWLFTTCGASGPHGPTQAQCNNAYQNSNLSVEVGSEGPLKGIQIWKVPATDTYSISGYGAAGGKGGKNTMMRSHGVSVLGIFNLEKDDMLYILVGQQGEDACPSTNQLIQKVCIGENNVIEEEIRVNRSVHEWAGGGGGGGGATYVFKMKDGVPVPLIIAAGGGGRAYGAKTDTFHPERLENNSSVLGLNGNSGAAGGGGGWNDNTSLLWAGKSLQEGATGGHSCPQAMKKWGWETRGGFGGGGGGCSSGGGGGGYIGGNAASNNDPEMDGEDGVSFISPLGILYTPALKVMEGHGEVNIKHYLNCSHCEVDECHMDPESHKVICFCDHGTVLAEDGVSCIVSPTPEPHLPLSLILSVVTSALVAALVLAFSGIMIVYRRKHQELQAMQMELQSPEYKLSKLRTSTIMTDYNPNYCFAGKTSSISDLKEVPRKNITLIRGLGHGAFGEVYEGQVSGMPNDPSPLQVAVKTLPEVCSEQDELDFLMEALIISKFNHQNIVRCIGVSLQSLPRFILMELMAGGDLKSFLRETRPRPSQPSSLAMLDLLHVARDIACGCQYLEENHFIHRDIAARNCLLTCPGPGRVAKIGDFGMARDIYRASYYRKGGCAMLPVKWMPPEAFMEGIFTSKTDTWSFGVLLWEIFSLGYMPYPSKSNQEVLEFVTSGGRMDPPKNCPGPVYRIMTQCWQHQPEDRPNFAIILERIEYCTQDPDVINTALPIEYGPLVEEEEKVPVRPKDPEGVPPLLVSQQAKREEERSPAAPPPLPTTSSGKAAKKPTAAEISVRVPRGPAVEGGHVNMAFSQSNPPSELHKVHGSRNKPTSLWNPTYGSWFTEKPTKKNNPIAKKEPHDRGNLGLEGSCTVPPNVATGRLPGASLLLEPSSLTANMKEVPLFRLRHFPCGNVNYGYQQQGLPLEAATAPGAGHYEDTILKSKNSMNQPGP
Method: as §1

EPHB3 = EPHB3 (Homo sapiens, UniProt P54753)
Method: as §1

AXL = AXL (Homo sapiens, UniProt P30530)
Method: as §1

MSK1 = molecular target: T9, MSK1 (Homo sapiens, UniProt O75582)
T9 construct: gene RPS6KA5
T9 sequence (O75582 whole entry): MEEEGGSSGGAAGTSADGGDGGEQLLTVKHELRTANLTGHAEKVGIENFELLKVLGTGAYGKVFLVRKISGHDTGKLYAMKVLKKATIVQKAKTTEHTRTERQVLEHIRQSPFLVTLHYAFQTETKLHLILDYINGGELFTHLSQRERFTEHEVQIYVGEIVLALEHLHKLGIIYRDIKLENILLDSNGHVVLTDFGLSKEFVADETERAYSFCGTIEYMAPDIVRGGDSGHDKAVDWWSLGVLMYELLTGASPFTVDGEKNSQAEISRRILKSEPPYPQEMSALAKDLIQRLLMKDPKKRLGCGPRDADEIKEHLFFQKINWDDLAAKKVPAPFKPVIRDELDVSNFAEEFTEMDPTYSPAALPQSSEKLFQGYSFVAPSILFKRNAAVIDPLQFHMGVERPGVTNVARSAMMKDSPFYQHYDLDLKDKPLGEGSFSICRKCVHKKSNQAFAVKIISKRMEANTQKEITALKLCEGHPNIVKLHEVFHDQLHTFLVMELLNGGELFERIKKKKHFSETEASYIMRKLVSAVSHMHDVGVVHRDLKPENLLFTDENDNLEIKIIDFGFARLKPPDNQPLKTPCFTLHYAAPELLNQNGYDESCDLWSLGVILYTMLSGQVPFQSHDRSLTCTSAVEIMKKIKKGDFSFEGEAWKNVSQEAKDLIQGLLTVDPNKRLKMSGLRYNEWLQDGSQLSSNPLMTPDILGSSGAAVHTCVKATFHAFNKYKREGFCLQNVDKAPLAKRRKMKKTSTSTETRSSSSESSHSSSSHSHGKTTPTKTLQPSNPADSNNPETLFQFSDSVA
Method: as §1

PKD3 = molecular target: T10, PKD3 (Homo sapiens, UniProt O94806)
T10 construct: gene PRKD3
Method: as §1

ABL(T315I) = molecular target: T11, ABL(T315I) (Homo sapiens, UniProt P00519, T315I)
T11 construct: gene ABL1
Method: as §1

PDHK4 = molecular target: T12, PDHK4 (Homo sapiens, UniProt Q16654)
T12 construct: gene PDK4
Method: as §1

CaMK4 = CaMK4 (Homo sapiens, UniProt Q16566)
Method: as §1

TSSK1 = molecular target: T13, TSSK1 (Homo sapiens, UniProt Q9BXA7)
T13 construct: gene TSSK1B
Method: as §1

CDK2/CycA2 = CDK2/CycA2 (Homo sapiens, UniProt P24941)
Method: as §1

FGFR1 = FGFR1 (Homo sapiens, UniProt P11362)
Method: as §1

NDR2 = molecular target: T14, NDR2 (Homo sapiens, UniProt Q9Y2H1)
T14 construct: gene STK38L
Method: as §1

FRK = FRK (Homo sapiens, UniProt P42685)
Method: as §1

FGFR1(V561M) = FGFR1(V561M) (Homo sapiens, UniProt P11362, V561M)
Method: as §1

ROS = molecular target: T15, ROS (Homo sapiens, UniProt P08922)
T15 construct: gene ROS1
Method: as §1

CHK2 = molecular target: T16, CHK2 (Homo sapiens, UniProt O96017)
T16 construct: gene CHEK2
T16 sequence (O96017 whole entry): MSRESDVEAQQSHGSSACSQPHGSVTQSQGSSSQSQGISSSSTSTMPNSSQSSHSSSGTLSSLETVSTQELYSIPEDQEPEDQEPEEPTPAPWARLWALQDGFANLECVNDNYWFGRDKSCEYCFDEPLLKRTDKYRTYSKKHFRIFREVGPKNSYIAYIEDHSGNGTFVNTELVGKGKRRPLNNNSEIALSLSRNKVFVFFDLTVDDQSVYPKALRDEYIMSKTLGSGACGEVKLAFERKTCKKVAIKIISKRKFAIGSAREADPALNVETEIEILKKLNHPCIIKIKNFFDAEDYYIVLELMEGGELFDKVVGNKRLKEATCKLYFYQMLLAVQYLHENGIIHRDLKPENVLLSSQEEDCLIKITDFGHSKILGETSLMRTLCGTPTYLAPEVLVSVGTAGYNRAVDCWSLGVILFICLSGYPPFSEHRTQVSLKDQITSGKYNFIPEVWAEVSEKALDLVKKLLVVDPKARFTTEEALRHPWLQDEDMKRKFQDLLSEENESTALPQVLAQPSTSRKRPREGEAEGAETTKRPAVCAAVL
Method: as §1

PAK4 = PAK4 (Homo sapiens, UniProt O96013)
Method: as §1

For `c1cc(-c2ccc3[nH]ncc3c2)ccn1` [TG693, 5-(4-pyridinyl)-1H-indazole], which inhibition at 1 µM (MRCKβ) is on record?
The inhibition at 1 µM was -7.3%.

And the inhibition at 1 µM (CaMK2δ)?
The inhibition at 1 µM was 1.4%.

What about the inhibition at 1 µM (DYRK3) of the same molecule?
Its inhibition at 1 µM is 64%.

What about the inhibition at 1 µM (HGK) of the same molecule?
The inhibition at 1 µM was 66.5%.

And the inhibition at 1 µM (NDR1)?
The inhibition at 1 µM was 11.5%.

And the inhibition at 1 µM (FLT1)?
Its inhibition at 1 µM is 5.9%.

And the inhibition at 1 µM (EGFR(T790M/L858R))?
The inhibition at 1 µM was 1.3%.

And the inhibition at 1 µM (PDGFRα(D842V))?
The inhibition at 1 µM was 0.8%.

And the inhibition at 1 µM (CK1γ3)?
Its inhibition at 1 µM is -7.7%.

What about the inhibition at 1 µM (MET) of the same molecule?
Its inhibition at 1 µM is 13.2%.

What about the inhibition at 1 µM (PKCα) of the same molecule?
The inhibition at 1 µM was -5.4%.

And the inhibition at 1 µM (RSK3)?
The inhibition at 1 µM was -4.8%.

What about the inhibition at 1 µM (PIM1) of the same molecule?
Its inhibition at 1 µM is 1.2%.

And the inhibition at 1 µM (ALK(L1196M))?
Its inhibition at 1 µM is 2.6%.

And the inhibition at 1 µM (EPHB3)?
The inhibition at 1 µM was -0.5%.

What about the inhibition at 1 µM (AXL) of the same molecule?
The inhibition at 1 µM was 3.5%.

And the inhibition at 1 µM (MSK1)?
The inhibition at 1 µM was 1.2%.

And the inhibition at 1 µM (PKD3)?
The inhibition at 1 µM was -9%.

And the inhibition at 1 µM (ABL(T315I))?
Its inhibition at 1 µM is 6.5%.

And the inhibition at 1 µM (PDHK4)?
Its inhibition at 1 µM is 3.1%.

And the inhibition at 1 µM (CaMK4)?
The inhibition at 1 µM was 0.5%.

And the inhibition at 1 µM (TSSK1)?
The inhibition at 1 µM was 3%.

What about the inhibition at 1 µM (CDK2/CycA2) of the same molecule?
The inhibition at 1 µM was 41.4%.

And the inhibition at 1 µM (FGFR1)?
The inhibition at 1 µM was 6.9%.

What about the inhibition at 1 µM (NDR2) of the same molecule?
The inhibition at 1 µM was 7.5%.

And the inhibition at 1 µM (FRK)?
Its inhibition at 1 µM is -2.3%.

And the inhibition at 1 µM (FGFR1(V561M))?
The inhibition at 1 µM was -11.6%.

What about the inhibition at 1 µM (ROS) of the same molecule?
Its inhibition at 1 µM is 8.1%.

What about the inhibition at 1 µM (CHK2) of the same molecule?
Its inhibition at 1 µM is -1%.

What about the inhibition at 1 µM (PAK4) of the same molecule?
Its inhibition at 1 µM is -13.7%.

Reference: publication PMC5448077, “Development of an orally available inhibitor of CLK1 for skipping a mutated dystrophin exon in Duchenne muscular dystrophy” (Scientific Reports, 2017)
